# Assay results reported in ChEMBL document CHEMBL3045255, “Novel quinolyl-thienyl chalcones and their 2-pyrazoline derivatives with diverse substitution pattern as antileishmanial agents against Leishmania major” (Med Chem Res, 2012).
# Tested on: Leishmania major
# Experiment: Antileishmanial activity against promastigotes form of Leishmania major after 72 hr by cell counting using neubaur chamber
# Format: functional, organism-based
row,Compound,IC50 [µg/mL]
1,Cc1ccc2cc(/C=C/C(=O)c3ccsc3)c(Cl)nc2c1,0.88
2,Cc1ccc2cc(/C=C/C(=O)c3sccc3C)c(Cl)nc2c1,0.92
3,Cc1csc(C(=O)/C=C/c2cc3ccc(C)cc3nc2Cl)c1,0.83
4,Cc1ccc2cc(/C=C/C(=O)c3ccc(C)s3)c(Cl)nc2c1,0.74
5,Cc1ccc2cc(/C=C/C(=O)c3cc(C)sc3C)c(Cl)nc2c1,0.62
6,Cc1ccc2cc(/C=C/C(=O)c3sccc3Cl)c(Cl)nc2c1,0.59
7,Cc1ccc2cc(/C=C/C(=O)c3ccc(Cl)s3)c(Cl)nc2c1,0.81
8,Cc1ccc2cc(/C=C/C(=O)c3cc(Cl)sc3Cl)c(Cl)nc2c1,0.78
9,Cc1ccc2cc(/C=C/C(=O)c3sccc3Br)c(Cl)nc2c1,0.71
10,Cc1ccc2cc(/C=C/C(=O)c3ccc(Br)s3)c(Cl)nc2c1,0.91
11,Cc1ccc2cc(/C=C/C(=O)c3ccc(I)s3)c(Cl)nc2c1,0.84
12,Cc1cccc2cc(/C=C/C(=O)c3ccsc3)c(Cl)nc12,0.61
13,Cc1ccsc1C(=O)/C=C/c1cc2cccc(C)c2nc1Cl,0.94
14,Cc1csc(C(=O)/C=C/c2cc3cccc(C)c3nc2Cl)c1,0.59
15,Cc1ccc(C(=O)/C=C/c2cc3cccc(C)c3nc2Cl)s1,0.61
16,Cc1cc(C(=O)/C=C/c2cc3cccc(C)c3nc2Cl)c(C)s1,0.73
17,Cc1cccc2cc(/C=C/C(=O)c3sccc3Cl)c(Cl)nc12,0.78
18,Cc1cccc2cc(/C=C/C(=O)c3ccc(Cl)s3)c(Cl)nc12,0.65
19,Cc1cccc2cc(/C=C/C(=O)c3cc(Cl)sc3Cl)c(Cl)nc12,0.85
20,Cc1cccc2cc(/C=C/C(=O)c3ccc(Br)s3)c(Cl)nc12,0.78
21,Cc1cccc2cc(/C=C/C(=O)c3ccc(I)s3)c(Cl)nc12,0.67
22,Cc1cccc2cc(C3CC(c4ccsc4)=NN3)c(Cl)nc12 (centres undefined),0.67
23,Cc1ccc2cc(C3CC(c4ccsc4)=NN3)c(Cl)nc2c1 (centres undefined),0.94

# The next lines start with the values.
row,IC50 [µg/mL],Compound
1,0.93,Cc1cccc2cc(/C=C/C(=O)c3sccc3Br)c(Cl)nc12
2,0.93,Cc1ccc2cc(C3CC(c4ccc(Br)s4)=NN3)c(Cl)nc2c1 (centres undefined)
3,0.88,Cc1ccc2cc(C3CC(c4ccc(I)s4)=NN3)c(Cl)nc2c1 (centres undefined)
4,0.78,Cc1ccsc1C1=NNC(c2cc3cccc(C)c3nc2Cl)C1 (centres undefined)
5,0.74,Cc1csc(C2=NNC(c3cc4cccc(C)c4nc3Cl)C2)c1 (centres undefined)
6,0.89,Cc1ccc(C2=NNC(c3cc4cccc(C)c4nc3Cl)C2)s1 (centres undefined)
7,0.93,Cc1cc(C2=NNC(c3cc4cccc(C)c4nc3Cl)C2)c(C)s1 (centres undefined)
8,0.84,Cc1cccc2cc(C3CC(c4sccc4Cl)=NN3)c(Cl)nc12 (centres undefined)
9,0.75,Cc1cccc2cc(C3CC(c4ccc(Cl)s4)=NN3)c(Cl)nc12 (centres undefined)
10,0.79,Cc1cccc2cc(C3CC(c4cc(Cl)sc4Cl)=NN3)c(Cl)nc12 (centres undefined)
11,0.94,Cc1cccc2cc(C3CC(c4sccc4Br)=NN3)c(Cl)nc12 (centres undefined)
12,0.93,Cc1cccc2cc(C3CC(c4ccc(Br)s4)=NN3)c(Cl)nc12 (centres undefined)
13,0.77,Cc1cccc2cc(C3CC(c4ccc(I)s4)=NN3)c(Cl)nc12 (centres undefined)
14,0.76,Cc1ccc2cc(C3CC(c4sccc4C)=NN3)c(Cl)nc2c1 (centres undefined)
15,0.87,Cc1csc(C2=NNC(c3cc4ccc(C)cc4nc3Cl)C2)c1 (centres undefined)
16,0.89,Cc1ccc2cc(C3CC(c4ccc(C)s4)=NN3)c(Cl)nc2c1 (centres undefined)
17,0.76,Cc1ccc2cc(C3CC(c4cc(C)sc4C)=NN3)c(Cl)nc2c1 (centres undefined)
18,0.78,Cc1ccc2cc(C3CC(c4sccc4Cl)=NN3)c(Cl)nc2c1 (centres undefined)
19,0.83,Cc1ccc2cc(C3CC(c4ccc(Cl)s4)=NN3)c(Cl)nc2c1 (centres undefined)
20,0.71,Cc1ccc2cc(C3CC(c4cc(Cl)sc4Cl)=NN3)c(Cl)nc2c1 (centres undefined)
21,0.85,Cc1ccc2cc(C3CC(c4sccc4Br)=NN3)c(Cl)nc2c1 (centres undefined)
